Assay results published in patent publication US12122750B2, “AT2R antagonists and uses thereof” (Eli Lilly and Company, priority 2022, dated 2024).
Each block holds one compound with its values, some of them ahead of it.

How the values were obtained:
rAT2R = rAT2R (Rattus norvegicus (Rat), UniProt P35351); experiment: Rat binding affinity, competitive radioligand binding assay (SPA), rAT2R HEK293 membranes; conditions: rat AT2R
Method: Membrane Preparation Protocol (hAT2R HEK293 and rAT2R HEK293)
(§1) Receptor Binding Protocol
(§2) The assays were performed with a scintillation proximity assay (SPA) method using polyvinyltoluene (PVT) wheat germ agglutinin-coupled SPA beads (Perkin Elmer Cat. #RPNQ0001). Assay buffer containing BSA (50 mM Tris-HCl, pH 7.5, 150 mM NaCl, 0.1% w/v fatty-acid free BSA) was used for preparing radioligand, membrane and SPA bead reagent dilution to working stock concentrations. Reference control and test compounds were diluted to obtain ten-point concentration response curves using a four-fold serial dilution protocol onto assay plates, dispensed acoustically from DMSO stock using automated ECHO instrument technology (Labcyte, Inc.). Concentration response curves were routinely generated with the highest final assay concentration for the reference angiotensin-II control at 50 nM, and the highest final assay concentration for the test compounds at 50 μM. […] The hAT2R membrane was combined with PVT-WGA SPA beads to obtain a final assay concentration of 0.25 μg/well hAT2R membrane+0.1 mg/well PVT-WGA SPA bead. And the hAT1R membrane PVT-WGA SPA bead final concentrations was 0.5 μg/well hAT1R membrane+0.1 mg/well PVT-WGA SPA bead. […] For all assays, radioligand addition was followed by the addition of membrane-SPA bead mixture, i.e., the hAT2R membrane-SPA bead mixture (30 μL), the rAT2R membrane-SPA bead mixture, or the AT1R membrane-SPA bead mixture (30 μL) into the assay plate. All dispensing steps were added using a Multiflo FX (Biotek, Inc.) bulk dispensing instrument. After reagent addition steps, assay plates were sealed, and plate contents mixed for one minute on a benchtop micro-plate shaker. Following a 10-hour incubation at room temperature to allow for bead settling and radioligand binding, bound radioactivity was quantitated using a Microbeta Trilux scintillation counter (Perkin Elmer) and expressed as counts per minute (CPM). The unlabeled angiotensin-II control was included on each plate as an experimental assay reference.
(§3) Compounds were tested in a 10-point concentration response curve (CRC) format, with each plate containing the positive control angiotensin-II positive reference compound, and experimental compounds. Maximum binding response (Max) was determined in 32 control wells per plate using assay buffer treatment only, and the minimum binding controls or nonspecific binding response (Min) was also determined in 32 wells per plate by the treatment with 50 nM angiotensin-II. All test sample concentration responses were normalized to the control response and calculated as a percent of the maximal response after correcting for nonspecific binding as shown below: % Specific inhibition=100%−[(CPM−Min)/(Max−Min)×100%]
(§4) Percent specific binding (y-axis) was plotted versus the log concentration of compound (x-axis).

AT2R = AT2R (Rattus norvegicus (Rat), UniProt P35351); experiment: AT2R ex vivo autoradiography receptor occupancy in rat adrenal sections after oral dosing; set-up: species or system Sprague Dawley rats; conditions: for receptor occupancy at 3 mg/kg: oral dose 3 mg/kg
Sequence of AT2R (P35351 whole entry): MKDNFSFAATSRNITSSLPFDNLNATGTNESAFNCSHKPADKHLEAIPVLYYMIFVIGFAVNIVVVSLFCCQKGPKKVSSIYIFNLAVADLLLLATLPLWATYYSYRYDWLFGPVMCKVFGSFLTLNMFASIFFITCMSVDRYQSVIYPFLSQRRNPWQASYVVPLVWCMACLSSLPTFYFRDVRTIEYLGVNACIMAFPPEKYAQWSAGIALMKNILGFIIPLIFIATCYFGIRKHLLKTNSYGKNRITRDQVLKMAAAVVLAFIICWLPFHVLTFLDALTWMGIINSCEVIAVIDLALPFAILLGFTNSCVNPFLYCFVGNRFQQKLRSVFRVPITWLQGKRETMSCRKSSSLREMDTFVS
Method: The ability for a compound to engage its target may be measured by determining compound's receptor occupancy. An ex vivo autoradiography assay was conducted as described herein.
Twenty male Sprague Dawley rats (140-150 gms, Envigo) were maintained under controlled laboratory conditions on a 12 hr light cycle with ad lib access to food and water. […] Following a pre-determined survival time, plasma and adrenals were collected and frozen at −80° C. until analyzed. Frozen 20 μm sections of an adrenal from each animal were collected onto gelatin-coated slides and stored at −80° C. […] The specific ligand binding for each animal is calculated by subtracting the non-specific binding from the total bound.

[1] = molecular target: recombinant human angiotensin-II receptor subtype 2 (hAT2R) (Homo sapiens (Human), UniProt P50052); experiment: Competitive radioligand binding assay (SPA), hAT2R HEK293 membranes; conditions: [125I]-Tyr4-Angiotensin-II, read-out: AT2R Ki
Sequence of recombinant human angiotensin-II receptor subtype 2 (hAT2R) (P50052 whole entry): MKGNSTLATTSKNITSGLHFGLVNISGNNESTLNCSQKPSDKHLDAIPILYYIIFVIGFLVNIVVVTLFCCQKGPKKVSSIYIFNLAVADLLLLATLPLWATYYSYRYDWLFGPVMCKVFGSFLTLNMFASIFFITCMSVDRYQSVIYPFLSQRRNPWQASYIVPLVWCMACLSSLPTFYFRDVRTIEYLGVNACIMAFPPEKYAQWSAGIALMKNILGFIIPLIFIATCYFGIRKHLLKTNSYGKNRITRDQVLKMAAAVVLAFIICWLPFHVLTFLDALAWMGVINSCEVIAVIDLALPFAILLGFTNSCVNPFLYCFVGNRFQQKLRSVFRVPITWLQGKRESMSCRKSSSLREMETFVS
Outline: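 SPA competition binding on membranes from HEK293 cells stably transfected with hAT2R (0.25 μg/well, with 0.1 mg/well PVT-WGA beads) in 50 mM Tris-HCl pH 7.5, 150 mM NaCl, 0.1% fatty-acid-free BSA. Ten-point four-fold dilution curves ran from 50 μM top final concentration. Bound radioactivity was counted (CPM) after 10 h at room temperature.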

[2] = molecular target: recombinant human angiotensin-II receptor subtype I (hAT1R) (Homo sapiens (Human), UniProt P30556); experiment: Competitive radioligand binding assay (SPA), hAT1R/CHO membranes; conditions: [125I]-Tyr4-Angiotensin-II, read-out: AT1R Ki
Sequence of recombinant human angiotensin-II receptor subtype I (hAT1R) (P30556 whole entry): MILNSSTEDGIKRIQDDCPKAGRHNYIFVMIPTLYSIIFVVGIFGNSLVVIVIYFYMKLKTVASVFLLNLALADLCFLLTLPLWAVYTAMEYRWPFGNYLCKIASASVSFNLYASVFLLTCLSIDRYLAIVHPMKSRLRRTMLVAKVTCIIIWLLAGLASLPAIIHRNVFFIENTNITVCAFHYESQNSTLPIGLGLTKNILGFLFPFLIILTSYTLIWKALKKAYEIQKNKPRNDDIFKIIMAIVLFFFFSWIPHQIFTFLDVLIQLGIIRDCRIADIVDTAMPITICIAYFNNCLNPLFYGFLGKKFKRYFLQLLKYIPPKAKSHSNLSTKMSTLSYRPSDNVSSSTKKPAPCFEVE
Method: Membranes hATIR/CHO were Purchased from PerkinElmer, Inc.
Cellular membranes prepared from Chinese hamster ovary (CHO) cells which expressed recombinant human angiotensin-II receptor subtype I (hAT1R), were purchased from PerkinElmer (Catalog Number ES-072-M400UA).
as §1, §2, §3, §4
Binding affinities for compounds of the present disclosure were determined according to the assay described herein.
Binding affinities for compounds of the present disclosure were determined according to the assay described above.

[3] = Plasma concentration of test compound in the receptor occupancy study; type: in vivo, Sprague Dawley rats; conditions: rat
Method: Twenty male Sprague Dawley rats (140-150 gms, Envigo) were maintained under controlled laboratory conditions on a 12 hr light cycle with ad lib access to food and water. On the morning of the experiment, rats were orally dosed with vehicle (1% (w/v) hydroxyethylcellulose, 0.25% (w/v) polysorbate 80, 0.05% (v/v) antifoam 1510-US in purified water) or appropriate doses of test compound (5 mL/kg, n=4 rats/group) using the same vehicle. Following a pre-determined survival time, plasma and adrenals were collected and frozen at −80° C. until analyzed. Frozen 20 μm sections of an adrenal from each animal were collected onto gelatin-coated slides and stored at −80° C. Autoradiography to detect AT2R occupancy (RO) was conducted under cold conditions using methods modified from F. M. J. Heemskerk, et al, Brain Research 677 (1995) 29-38. Total binding was defined by 0.3 nM ^125I-CGP42112 (selective AT2R agonist, Perkin Elmer, Inc) with the addition of 10 μM unlabeled AngII used to define non-specific binding. Following exposure to a phosphoimager plate (BAS TR2025, GE Healthcare), the bound radioactivity is calculated with use of MCID software (Imaging Research, Inc) and calibrated ^125I standards (American Radiolabeled Chemicals, Inc). The specific ligand binding for each animal is calculated by subtracting the non-specific binding from the total bound.

[4] = plasma concentration plotted vs % receptor occupancy, rat

Sequence of rAT2R (P35351 whole entry): as the sequence (P35351 whole entry) above

SMILES: CN(C(=O)N1CCC(CC(=O)N(c2ccccc2)c2ccc(F)cc2)(C(=O)O)CC1)c1ccc(F)cc1 [compound 30, 4-[2-(N-(4-fluorophenyl)anilino)-2-oxo-ethyl]-1-[(4-fluorophenyl)-methyl-carbamoyl]piperidine-4-carboxylic acid]
Ki (rAT2R): 0.6 nM
receptor occupancy at 0.01 mg/kg (AT2R; rat adrenal, oral dose 0.01 mg/kg, read-out: % RO): 30.4%
receptor occupancy at 0.03 mg/kg (AT2R; rat adrenal, oral dose 0.03 mg/kg, read-out: % RO): 3.46%
receptor occupancy at 0.3 mg/kg (AT2R; rat adrenal, oral dose 0.3 mg/kg, read-out: % RO): 45.6%
receptor occupancy at 3 mg/kg (AT2R; rat adrenal, read-out: % RO): 88.7%

SMILES: CN(C(=O)N1CCC(CC(=O)N(c2ccccc2)c2ccccc2)(C(=O)O)CC1)c1ccc(F)cc1 [Example 2, 1-[(4-fluorophenyl)-methyl-carbamoyl]-4-[2-oxo-2-(N-phenylanilino)ethyl]piperidine-4-carboxylic acid]
Ki [2]: 37300 nM
[plasma, free, nM] ([3]; oral dose 0.01 mg/kg): 0.0697 nM
[plasma, free, nM] ([3]; oral dose 0.03 mg/kg): 0.0403 nM
[plasma, free, nM] ([3]; oral dose 0.3 mg/kg): 0.153 nM
[plasma, free, nM] ([3]; oral dose 3 mg/kg): 0.772 nM

SMILES: CN(C(=O)N1CCC(CC(=O)N(c2ccccc2)C2CCCOC2)(C(=O)O)CC1)c1ccc(C2CC2)cc1 (single isomer, unassigned) [Example 45B, 1-[(4-cyclopropylphenyl)-methyl-carbamoyl]-4-[2-oxo-2-(N-tetrahydropyran-3-ylanilino)ethyl]piperidine-4-carboxylic acid]
Ki [1]: 2.68 nM

SMILES: CN(C(=O)N1CCC(CC(=O)N(c2ccccc2)C2CCCOC2)(C(=O)O)CC1)c1ccc(F)cc1 (single isomer, unassigned) [Example 41B, 1-[(4-fluorophenyl)-methyl-carbamoyl]-4-[2-oxo-2-(N-tetrahydropyran-3-ylanilino)ethyl]piperidine-4-carboxylic acid]
Ki [1]: 14.7 nM

SMILES: CCCCCN(C)C(=O)N1CCC(CC(=O)N(c2ccccc2)c2ccccc2)(C(=O)O)CC1 [Example 1, 1-[methyl(pentyl)carbamoyl]-4-[2-oxo-2-(N-phenylanilino)ethyl]piperidine-4-carboxylic acid]
Ki (rAT2R): 28.2 nM
IC50 (AT2R; [4]): 5.64 nM
IC80 (AT2R; [4]): 22.6 nM
receptor occupancy at 3 mg/kg (AT2R; rat adrenal, read-out: % RO): 23.4%
receptor occupancy at 10 mg/kg (AT2R; rat adrenal, oral dose 10 mg/kg, read-out: % RO): 44.6%
receptor occupancy at 30 mg/kg (AT2R; rat adrenal, oral dose 30 mg/kg, read-out: % RO): 41.6%
receptor occupancy at 100 mg/kg (AT2R; rat adrenal, oral dose 100 mg/kg, read-out: % RO): 54.6%
ex vivo IC50 (TER) (AT2R; rat receptor occupancy): 0.200 TER
ex vivo IC80 (TER) (AT2R; rat receptor occupancy): 0.800 TER
[plasma, free, nM] ([3]; oral dose 3 mg/kg): 0.729 nM
[plasma, free, nM] ([3]; oral dose 10 mg/kg): 2.25 nM
[plasma, free, nM] ([3]; oral dose 30 mg/kg): 6.42 nM
[plasma, free, nM] ([3]; oral dose 100 mg/kg): 10.4 nM

SMILES: CC(C)C(C)N(C(=O)CC1(C(=O)O)CCN(C(=O)N(C)c2ccc(F)cc2)CC1)c1ccccc1 (racemic) [Example 34, 4-[2-(N-[(1)-1,2-dimethylpropyl]anilino)-2-oxo-ethyl]-1-[(4-fluorophenyl)-methyl-carbamoyl]piperidine-4-carboxylic acid]
Ki [1]: 4.32 nM

Second part, the compound after the results:

Ki [1]: 1.34 nM
Ki [2]: 37300 nM
SMILES: N#Cc1ccc2c(c1)N(C(=O)N1CCC(CC(=O)N(c3ccccc3)C3CCCC(F)(F)C3)(C(=O)O)CC1)CC2 (racemic) [Example 47, 1-(6-cyanoindoline-1-carbonyl)-4-[2-(N-(3,3-difluorocyclohexyl)anilino)-2-oxo-ethyl]piperidine-4-carboxylic acid]

Ki [2]: 37300 nM
SMILES: CN(C(=O)N1CCC(CC(=O)N(c2ccccc2)[C@H]2CCCC(F)(F)C2)(C(=O)O)CC1)c1ccc(F)cc1 (single isomer, unassigned) [44B (isomer 2)]

Ki [1]: 0.342 nM
Ki [2]: 37300 nM
SMILES: CN(C(=O)N1CCC(CC(=O)N(c2cccc(F)c2)C2CCCC(F)(F)C2)(C(=O)O)CC1)c1ccccc1 (racemic) [Example 53, 4-[2-(N-(3,3-difluorocyclohexyl)-3-fluoro-anilino)-2-oxo-ethyl]-1-[methyl(phenyl)carbamoyl]piperidine-4-carboxylic acid]

Ki [1]: 2.31 nM
Ki [2]: 37300 nM
SMILES: CC(C)(C(=O)N1CCC(CC(=O)N(c2ccccc2)C2CCCC(F)(F)C2)(C(=O)O)CC1)c1ccccc1F (racemic) [Example 67, 4-[2-(N-(3,3-difluorocyclohexyl)anilino)-2-oxo-ethyl]-1-[2-(2-fluorophenyl)-2-methyl-propanoyl]piperidine-4-carboxylic acid]

Ki [1]: 0.619 nM
Ki [2]: 37300 nM
SMILES: O=C(CC1(C(=O)O)CCN(C(=O)C2(c3ccccc3F)CC2)CC1)N(c1ccccc1)C1CCCC(F)(F)C1 (racemic) [Example 66, 4-[2-(N-(3,3-difluorocyclohexyl)anilino)-2-oxo-ethyl]-1-[1-(2-fluorophenyl)cyclopropanecarbonyl]piperidine-4-carboxylic acid]

Ki [1]: 2.79 nM
Ki [2]: 37300 nM
SMILES: O=C(N1CCC(CC(=O)N(c2ccccc2)C2CCCC(F)(F)C2)(C(=O)O)CC1)N1CCc2ccccc21 (racemic) [Example 35, 4-[2-(N-(3,3-difluorocyclohexyl)anilino)-2-oxo-ethyl]-1-(indoline-1-carbonyl)piperidine-4-carboxylic acid]

Ki [1]: 1.03 nM
Ki [2]: 37300 nM
SMILES: O=C(N1CCC(CC(=O)N(c2ccccc2)C2CCCC(F)(F)C2)(C(=O)O)CC1)N1CCc2ccccc21 (single isomer, unassigned) [Example 35B, 4-[2-(N-(3,3-difluorocyclohexyl)anilino)-2-oxo-ethyl]-1-(indoline-1-carbonyl)piperidine-4-carboxylic acid]
